Experimental data taken from patent US20230025807A1 (priority 2019, published 2023).
Counter-ions that a name gives are not always drawn. Like-named read-outs stand apart in the source and are kept apart here.

Molecular target: T1, Human CD38 (Homo sapiens, UniProt P28907)
T1 construct: purchased BPS Bioscience 79287
T1 sequence (P28907 1-300): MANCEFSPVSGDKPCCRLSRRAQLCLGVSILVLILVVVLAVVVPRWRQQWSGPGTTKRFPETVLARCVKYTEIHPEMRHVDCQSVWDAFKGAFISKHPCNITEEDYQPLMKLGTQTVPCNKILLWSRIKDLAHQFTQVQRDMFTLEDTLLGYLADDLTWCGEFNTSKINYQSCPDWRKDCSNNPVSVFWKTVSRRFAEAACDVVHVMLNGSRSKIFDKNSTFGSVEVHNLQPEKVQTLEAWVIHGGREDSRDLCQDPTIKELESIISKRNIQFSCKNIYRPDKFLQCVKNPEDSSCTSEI
Test: biochemical
Description: CD38 hydrolase buffer (4×) was thawed on ice and 1×CD38 hydrolase buffer was prepared by diluting 4×CD38 hydrolase buffer with water. CD38 hydrolase enzyme was diluted to […] with 1×CD38 hydrolase buffer (10 ng/well). Master mix was prepared by mixing equal volumes of water and CD38 hydrolase buffer (4×) and 10 μl of the mix was added to all the wells. Following master mix addition, 10 μl of the inhibitors and 20 μl of CD38 hydrolase enzyme were added to the wells. For wells designated blank, 10 μl and 20 μl of 1×CD38 hydrolase buffer was added respectively in place of CD38 enzyme and inhibitors. The plate was covered and incubated 30 min at room temperature with slow shaking at 400 rpm. After 30 min incubation, the plate was removed and 10 μl of diluted ε-NAD substrate was added to all the wells. The plate is incubated for 10 min, spun at 1200 rpm for 30 secs to remove bubbles and read in Tecan Spark using a fluorometer setting of excitation 300 nm and emission 410 nm. The reading for the blank was subtracted from all the values. IC50 for the test compounds were determined by using Graphpad prism software v7.0.

[1] = 30 min pre-incubation at room temperature, ε-NAD substrate 10 min, excitation 300 nm / emission 410 nm, read-out: hCD38 IC50

| Structure (SMILES) | IC50 [nM] | IC50 [1] [nM] |
| --- | --- | --- |
| COCCO[C@H]1CC[C@H](NC(=O)c2cc(-c3cncs3)cc3c2ccn3CC2COC2)CC1 [Example 50, N-((1r,4r)-4-(2-methoxyethoxy)cyclohexyl)-1-(oxetan-3-ylmethyl)-6-(thiazol-5-yl)-1H-indole-4-carboxamide] | 503 | – |
| COCCO[C@H]1C[C@@H](NC(=O)c2cc(-c3cncs3)cc3[nH]ccc23)C1 [Example 32, N-((1s,3s)-3-(2-methoxyethoxy)cyclobutyl)-6-(thiazol-5-yl)-1H-indole-4-carboxamide] | 3300 | – |
| C[C@H]1CCCC[C@H]1NC(=O)c1cc(-c2cncs2)cc2[nH]ccc12 [Example 40, N-((1R,2S)-2-methylcyclohexyl)-6-(thiazol-5-yl)-1H-indole-4-carboxamide] | 78 | – |
| O=C(NC1CCNCC1)c1cc(-c2cncs2)cc2[nH]ccc12 [Example 35, N-(piperidin-4-yl)-6-(thiazol-5-yl)-1H-indole-4-carboxamide hydrochloride] | 7800 | – |
| O=C(NCc1ccc(N2CCOCC2)cc1)c1cc(-c2cncs2)cc2[nH]ccc12 [Example 33, N-(4-morpholinobenzyl)-6-(thiazol-5-yl)-1H-indole-4-carboxamide] | > 10000 | – |
| CC1(O)CC(NC(=O)c2cc(-c3cncs3)cc3[nH]ccc23)C1 (stereo not drawn) [Example 36, N-(3-hydroxy-3-methylcyclobutyl)-6-(thiazol-5-yl)-1H-indole-4-carboxamide] | 1500 | – |
| O=C(NC1CCOCC1)c1cc(-c2cncs2)cc2[nH]ccc12 [Example 45, N-(tetrahydro-2H-pyran-4-yl)-6-(thiazol-5-yl)-1H-indole-4-carboxamide] | 664 | – |
| CC(C)(O)[C@H]1CC[C@H](NC(=O)c2cc(-c3cncs3)cc3[nH]ccc23)CC1 [Example 29, N-((1r,4r)-4-(2-hydroxypropan-2-yl)cyclohexyl)-6-(thiazol-5-yl)-1H-indole-4-carboxamide] | 123 | – |
| CC(C)(O)CNC(=O)c1cc(-c2cncs2)cc2[nH]ccc12 [Example 43, N-(2-hydroxy-2-methylpropyl)-6-(thiazol-5-yl)-1H-indole-4-carboxamide] | 5100 | – |
| COCCO[C@H]1CC[C@H](NC(=O)c2cc(-n3ccnc3)cc3c(C=O)c[nH]c23)CC1 [Example 15, 3-formyl-5-(1H-imidazol-1-yl)-N-((1r,4r)-4-(2-methoxyethoxy)cyclohexyl)-1H-indole-7-carboxamide] | 18000 | – |
| COCCO[C@H]1CC[C@H](NC(=O)c2cc(-n3ccnc3)cc3[nH]cc(C#N)c23)CC1 [Example 56, 3-cyano-6-(1H-imidazol-1-yl)-N-((1r,4r)-4-(2-methoxyethoxy)cyclohexyl)-1H-indole-4-carboxamide] | 9.8 | – |
| O=C(NCC1CCOCC1)c1cc(-c2cncs2)cc2[nH]ccc12 [Example 27, N-((tetrahydro-2H-pyran-4-yl)methyl)-6-(thiazol-5-yl)-1H-indole-4-carboxamide] | 3700 | – |
| COCCO[C@H]1CC[C@H](NC(=O)c2cc(-c3cncs3)cc3c2ccn3CC(C)(C)O)CC1 [Example 53, 1-(2-hydroxy-2-methylpropyl)-N-((1r,4r)-4-(2-methoxyethoxy)cyclohexyl)-6-(thiazol-5-yl)-1H-indole-4-carboxamide] | 3000 | – |
| O=C(N[C@H]1C[C@H](O)C1)c1cc(-c2cncs2)cc2[nH]ccc12 [Example 46, N-((1r,3r)-3-hydroxycyclobutyl)-6-(thiazol-5-yl)-1H-indole-4-carboxamide] | 678 | – |
| O=C(NCc1c(F)cccc1C(F)(F)F)c1cc(-c2cncs2)cc2[nH]ccc12 [Example 25, N-(2-fluoro-6-(trifluoromethyl)benzyl)-6-(thiazol-5-yl)-1H-indole-4-carboxamide] | 78 | – |
| COCCO[C@H]1CC[C@H](NC(=O)c2cc(-n3ccnc3)cc3c(I)c[nH]c23)CC1 [Example 22, 5-(1H-imidazol-1-yl)-3-iodo-N-((1r,4r)-4-(2-methoxyethoxy)cyclohexyl)-1H-indole-7-carboxamide] | 169 | – |
| CC(NC(=O)c1cc(-c2cncs2)cc2[nH]ccc12)c1ccccc1F (stereo not drawn) [Example 39, N-(1-(2-fluorophenyl)ethyl)-6-(thiazol-5-yl)-1H-indole-4-carboxamide] | 197 | – |
| O=C(N[C@H]1CC[C@H](O)CC1)c1cc(-c2cncs2)cc2[nH]ccc12 [Example 41, N-((1r,4r)-4-hydroxycyclohexyl)-6-(thiazol-5-yl)-1H-indole-4-carboxamide] | – | 37 |

| Structure (SMILES) | IC50 [nM] | IC50 [1] [nM] |
| --- | --- | --- |
| COCCCO[C@H]1CC[C@H](NC(=O)c2cc(-c3cncs3)cc3[nH]ccc23)CC1 [Example 37, N-((1r,4r)-4-(3-methoxypropoxy)cyclohexyl)-6-(thiazol-5-yl)-1H-indole-4-carboxamide] | – | 63 |
| O=C(NC1CCS(=O)(=O)CC1)c1cc(-c2cncs2)cc2[nH]ccc12 [Example 24, N-(1,1-dioxidotetrahydro-2H-thiopyran-4-yl)-6-(thiazol-5-yl)-1H-indole-4-carboxamide] | 198 | – |
| COCCO[C@H]1CC[C@H](NC(=O)c2cc(-n3ccnc3)cc3c(C(=O)O)c[nH]c23)CC1 [Example 11, 5-(1H-imidazol-1-yl)-7-(((1r,4r)-4-(2-methoxyethoxy)cyclohexyl)carbamoyl)-1H-indole-3-carboxylic acid] | 580 | – |
| COCCO[C@H]1CC[C@H](NC(=O)c2cc(-n3ccnc3)cc3c(CN)c[nH]c23)CC1 [Example 17, 3-(aminomethyl)-5-(1H-imidazol-1-yl)-N-((1r,4r)-4-(2-methoxyethoxy)cyclohexyl)-1H-indole-7-carboxamide] | 890 | – |
| COCCO[C@H]1CC[C@H](NC(=O)c2cc(-n3cccn3)cc3cc[nH]c23)CC1 [Example 2, N-((1r,4r)-4-(2-methoxyethoxy)cyclohexyl)-5-(1H-pyrazol-1-yl)-1H-indole-7-carboxamide] | > 100000 | – |
| CS(=O)(=O)CCNC(=O)c1cc(-c2cncs2)cc2[nH]ccc12 [Example 26, N-(2-(methylsulfonyl)ethyl)-6-(thiazol-5-yl)-1H-indole-4-carboxamide] | 1000 | – |
| COCCO[C@H]1CC[C@H](NC(=O)c2nc(-n3ccnc3)cc3cc[nH]c23)CC1 [Example 59, 5-(1H-imidazol-1-yl)-N-((1r,4r)-4-(2-methoxyethoxy)cyclohexyl)-1H-pyrrolo[2,3-c]pyridine-7-carboxamide] | 6 | – |
| COCC(C)(C)NC(=O)c1cc(-c2cncs2)cc2[nH]ccc12 [Example 42, N-(1-methoxy-2-methylpropan-2-yl)-6-(thiazol-5-yl)-1H-indole-4-carboxamide] | 3600 | – |
| COCCO[C@H]1C[C@H](NC(=O)c2cc(-c3cncs3)cc3[nH]ccc23)C1 [Example 30, N-((1r,3r)-3-(2-methoxyethoxy)cyclobutyl)-6-(thiazol-5-yl)-1H-indole-4-carboxamide] | – | 761 |
| COCCO[C@H]1CC[C@H](NC(=O)c2cc(-c3ncc[nH]3)cc3cc[nH]c23)CC1 [Example 6, 5-(1H-imidazol-2-yl)-N-((1r,4r)-4-(2-methoxyethoxy)cyclohexyl)-1H-indole-7-carboxamide] | > 100000 | – |
| COCCO[C@H]1CC[C@H](NC(=O)c2cc(-c3cncs3)cc3c2ccn3C(C)C)CC1 [Example 52, 1-isopropyl-N-((1r,4r)-4-(2-methoxyethoxy)cyclohexyl)-6-(thiazol-5-yl)-1H-indole-4-carboxamide] | 1400 | – |
| O=C(NC12CC3CC(CC(C3)C1)C2)c1cc(-c2cncs2)cc2[nH]ccc12 [Example 44, N-(adamantan-1-yl)-6-(thiazol-5-yl)-1H-indole-4-carboxamide] | 393 | – |
| O=C(NC1CCCCC1)c1cc(-c2cncs2)cc2[nH]ccc12 [Example 47, N-cyclohexyl-6-(thiazol-5-yl)-1H-indole-4-carboxamide] | 138 | – |
| COCCO[C@H]1CC[C@H](NC(=O)c2cc(-n3ccnc3)cc3ccn(C)c23)CC1 [Example 54, 5-(1H-imidazol-1-yl)-N-((1r,4r)-4-(2-methoxyethoxy)cyclohexyl)-1-methyl-1H-indole-7-carboxamide] | 375 | – |
| COCCO[C@H]1CC[C@H](NC(=O)c2cc(-n3ccnc3)cc3c(CN(C)C)c[nH]c23)CC1 [Example 16, 3-((dimethylamino)methyl)-5-(1H-imidazol-1-yl)-N-((1r,4r)-4-(2-methoxyethoxy)cyclohexyl)-1H-indole-7-carboxamide] | 800 | – |
| COCCO[C@H]1CC[C@H](NC(=O)c2cc(-c3cncs3)cc3c(C#N)c[nH]c23)CC1 [Example 20, 3-cyano-N-((1r,4r)-4-(2-methoxyethoxy)cyclohexyl)-5-(thiazol-5-yl)-1H-indole-7-carboxamide] | 19 | – |
| O=C(N[C@@H]1CC[C@@H](O)C1)c1cc(-c2cncs2)cc2[nH]ccc12 [Example 31, N-((1R,3R)-3-hydroxycyclopentyl)-6-(thiazol-5-yl)-1H-indole-4-carboxamide] | 392 | – |
| O=C(NC12CC3CC(CC(O)(C3)C1)C2)c1cc(-c2cncs2)cc2[nH]ccc12 [Example 28, N-((1r,3s,5R,7S)-3-hydroxyadamantan-1-yl)-6-(thiazol-5-yl)-1H-indole-4-carboxamide] | 523 | – |
